# Where a name gives a salt, the structure may show the parent alone.
# Molecular target: T1, IRAK4 (Homo sapiens, UniProt Q9NWZ3)
# T1 sequence (Q9NWZ3 1-460): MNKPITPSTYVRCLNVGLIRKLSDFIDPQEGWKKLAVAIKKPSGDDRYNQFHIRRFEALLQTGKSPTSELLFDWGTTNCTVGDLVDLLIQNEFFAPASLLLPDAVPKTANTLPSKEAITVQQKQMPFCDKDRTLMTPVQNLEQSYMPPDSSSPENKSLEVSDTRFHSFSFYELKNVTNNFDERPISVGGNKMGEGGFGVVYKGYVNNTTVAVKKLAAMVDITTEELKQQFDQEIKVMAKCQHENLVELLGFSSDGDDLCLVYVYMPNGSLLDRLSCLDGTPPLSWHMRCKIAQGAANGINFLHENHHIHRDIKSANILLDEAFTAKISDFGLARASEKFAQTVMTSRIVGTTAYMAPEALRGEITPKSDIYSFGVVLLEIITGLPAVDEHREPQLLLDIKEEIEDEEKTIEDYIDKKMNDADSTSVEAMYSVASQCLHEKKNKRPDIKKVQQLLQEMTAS
# Experiment: 2-hour 1 mM ATP IRAK4 Biochemical assay (as above, but with 100 pM IRAK4 and 1 mM ATP)
# Conditions: IRAK4 MSD BIOCHEMICAL (1 mM ATP) IC50 (μM), 100 pM IRAK4, 2 hours
# Summary of the method: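 MSD electrochemiluminescence read-out: biotinylated peptide product bound to streptavidin plates, probed with anti-P-Thr rabbit antibody and Sulfo-Tag goat anti-rabbit. Kinase reaction used 1 mM ATP and 100 pM IRAK4 over 2 hours before EDTA quench.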
row,SMILES,IC50 [µM]
1,"COc1ncccc1C(=O)Nc1cn2cc(C34COC(C)(C3)C4)nc2cc1OC(C)C(F)(F)F (racemic) [Example 317, 2-methoxy-N-(2-(1-methyl-2-oxabicyclo[2.1.1]hexan-4-yl)-7-((1,1,1-trifluoropropan-2-yl)oxy)imidazo[1,2-a]pyridin-6-yl)nicotinamide]",0.001
2,"O=C(Nc1cn2cc(C3CCOCC3)nc2cc1OCCOC(F)F)c1cccc(C(F)F)n1 [Example 192, N-(7-(2-(difluoromethoxy)ethoxy)-2-(tetrahydro-2H-pyran-4-yl)imidazo[1,2-a]pyridin-6-yl)-6-(difluoromethyl)picolinamide]",0.002
3,"CCc1cc(NC(=O)c2cccc(C(F)F)n2)cn2cc(C3CCOCC3)nc12 [Example 290, 6-(difluoromethyl)-N-(8-ethyl-2-(tetrahydro-2H-pyran-4-yl)imidazo[1,2-a]pyridin-6-yl)picolinamide]",0.013
4,"CC(C)Oc1cc2nc(C3CCOCC3)cn2cc1NC(=O)c1cc2ccccn2n1 [Example 381, N-(7-isopropoxy-2-(tetrahydro-2H-pyran-4-yl)imidazo[1,2-a]pyridin-6-yl)pyrazolo[1,5-a]pyridine-2-carboxamide 2,2,2-trifluoroacetate]",0.004
5,"COc1cc2nc(C34COC(C)(C3)C4)cn2cc1NC(=O)c1cccc(C(F)(F)F)n1 [Example 309, N-(7-methoxy-2-(1-methyl-2-oxabicyclo[2.1.1]hexan-4-yl)imidazo[1,2-a]pyridin-6-yl)-6-(trifluoromethyl)picolinamide]",0.001
6,"CC(C)(O)c1cc2nc(C3CCOCC3)cn2cc1NC(=O)c1cccc(C(F)F)n1 [Example 292, 6-(difluoromethyl)-N-(7-(2-hydroxypropan-2-yl)-2-(tetrahydro-2H-pyran-4-yl)imidazo[1,2-a]pyridin-6-yl)picolinamide]",0.001
7,"COc1nc(NC(=O)c2cccc(C(F)F)n2)cn2cc(C3CC3)nc12 [Example 562, N-(2-cyclopropyl-8-methoxyimidazo[1,2-a]pyrazin-6-yl)-6-(difluoromethyl)picolinamide 2,2,2-trifluoroacetate]",0.053
8,"CC(C)Oc1c(NC(=O)c2ccn(C(F)F)n2)cn2cc(C34COC(C)(C3)C4)nc2c1F [Example 547, 1-(difluoromethyl)-N-(8-fluoro-7-isopropoxy-2-(1-methyl-2-oxabicyclo[2.1.1]hexan-4-yl)imidazo[1,2-a]pyridin-6-yl)-1H-pyrazole-3-carboxamide]",0.001
9,"CCOc1cc2nc(C3C4COCC43)cn2cc1NC(=O)c1coc(C2CC2)n1 (stereo not drawn) [Example 375, N-(2-(3-oxabicyclo[3.1.0]hexan-6-yl)-7-ethoxyimidazo[1,2-a]pyridin-6-yl)-2-cyclopropyloxazole-4-carboxamide]",0.004
10,"CC(C)Oc1cc2nc(C3CCOCC3)cn2cc1NC(=O)c1cc2ncccn2n1 [Example 382, N-(7-isopropoxy-2-(tetrahydro-2H-pyran-4-yl)imidazo[1,2-a]pyridin-6-yl)pyrazolo[1,5-a]pyrimidine-2-carboxamide 2,2,2-trifluoroacetate]",0.022
11,"O=C(Nc1cn2cc(C3CCOCC3)nc2cc1OCCF)c1cccc(C(F)F)n1 [Example 188, 6-(difluoromethyl)-N-(7-(2-fluoroethoxy)-2-(tetrahydro-2H-pyran-4-yl)imidazo[1,2-a]pyridin-6-yl)picolinamide]",0.001
12,"CCOc1cc(NC(=O)c2cccc(C)n2)cn2cc([C@H]3[C@@H]4COC[C@@H]43)nc12 [Example 417, N-(2-((1R,5S,6s)-3-oxabicyclo[3.1.0]hexan-6-yl)-8-ethoxyimidazo[1,2-a]pyridin-6-yl)-6-methylpicolinamide]",0.022
13,"CCOc1nc2nc(C3CCOCC3)cn2cc1NC(=O)c1ccc2c(n1)CCC2 [Example 570, N-(7-ethoxy-2-(tetrahydro-2H-pyran-4-yl)imidazo[1,2-a]pyrimidin-6-yl)-6,7-dihydro-5H-cyclopenta[b]pyridine-2-carboxamide hydrochloride]",0.005
14,"COc1ccccc1C(=O)Nc1cn2cc(C34CCC(C)(C3)OC4)nc2c(OC)n1 (stereo not drawn) [Example 465, 2-methoxy-N-(8-methoxy-2-(1-methyl-2-oxabicyclo[2.2.1]heptan-4-yl)imidazo[1,2-a]pyrazin-6-yl)benzamide 2,2,2-trifluoroacetate]",0.037
15,"COc1nc(NC(=O)c2cccc(C(F)F)n2)cn2cc(C3C4COCC43)nc12 (stereo not drawn) [Example 551, N-(2-(3-oxabicyclo[3.1.0]hexan-6-yl)-8-methoxyimidazo[1,2-a]pyrazin-6-yl)-6-(difluoromethyl)picolinamide 2,2,2-trifluoroactetate]",0.026
16,"O=C(Nc1cn2cc(C3CCOCC3)nc2cc1OC1CCOC1)c1cccc(C(F)F)n1 (stereo not drawn) [Example 183, 6-(difluoromethyl)-N-(2-(tetrahydro-2H-pyran-4-yl)-7-((tetrahydrofuran-3-yl)oxy)imidazo[1,2-a]pyridin-6-yl)picolinamide]",0.001
17,"CC(C)Oc1nc(NC(=O)c2ccnc3ccnn23)cn2cc(C34COC(C)(C3)C4)nc12 [Example 481, N-(8-isopropoxy-2-(1-methyl-2-oxabicyclo[2.1.1]hexan-4-yl)imidazo[1,2-a]pyrazin-6-yl)pyrazolo[1,5-a]pyrimidine-7-carboxamide]",0.025
18,"Cn1ccc(C(=O)Nc2cn3cc(C45COC(C)(C4)C5)nc3cc2OC(F)F)n1 [Example 397, N-(7-(difluoromethoxy)-2-(1-methyl-2-oxabicyclo[2.1.1]hexan-4-yl)imidazo[1,2-a]pyridin-6-yl)-1-methyl-1H-pyrazole-3-carboxamide 2,2,2-trifluoroacetate]",0.021

# More lines, now with the values ahead:
row,IC50 [µM],SMILES
1,0.025,"CCOc1nc(NC(=O)c2cccc(C)n2)cn2cc(C3CCOCC3)nc12 [Example 474, N-(8-ethoxy-2-(tetrahydro-2H-pyran-4-yl)imidazo[1,2-a]pyrazin-6-yl)-6-methylpicolinamide 2,2,2-trifluoroacetate]"
2,0.003,"CC(C)Oc1nc2nc(C34CC(C3)C4)cn2cc1NC(=O)c1cccc(C(F)F)n1 [Example 573, N-(2-(bicyclo[1.1.1]pentan-1-yl)-7-isopropoxyimidazo[1,2-a]pyrimidin-6-yl)-6-(difluoromethyl)picolinamide 2,2,2-trifluoroacetate]"
3,0.004,"COc1c(NC(=O)c2cccc(C(F)F)n2)cn2cc(C34COC(C)(C3)C4)nc2c1C [Example 295, 6-(difluoromethyl)-N-(7-methoxy-8-methyl-2-(1-methyl-2-oxabicyclo[2.1.1]hexan-4-yl)imidazo[1,2-a]pyridin-6-yl)picolinamide]"
4,0.072,"Cn1ccc(C(=O)Nc2cn3cc(C45COC(C)(C4)C5)nc3cc2C(F)F)n1 [Example 390, N-(7-(difluoromethyl)-2-(1-methyl-2-oxabicyclo[2.1.1]hexan-4-yl)imidazo[1,2-a]pyridin-6-yl)-1-methyl-1H-pyrazole-3-carboxamide 2,2,2-trifluoroacetate]"
5,0.008,"COc1nc(NC(=O)c2cccc3c2OCC3)cn2cc(C34CCC(C)(C3)OC4)nc12 (stereo not drawn) [Example 469, N-(8-methoxy-2-(1-methyl-2-oxabicyclo[2.2.1]heptan-4-yl)imidazo[1,2-a]pyrazin-6-yl)-2,3-dihydrobenzofuran-7-carboxamide 2,2,2-trifluoroacetate]"
6,0.001,"COc1ncccc1C(=O)Nc1cn2cc(C34COC(C)(C3)C4)nc2nc1OC(C)C [Example 346, N-(7-isopropoxy-2-(1-methyl-2-oxabicyclo[2.1.1]hexan-4-yl)imidazo[1,2-a]pyrimidin-6-yl)-2-methoxynicotinamide]"
7,0.044,"COc1nc(NC(=O)c2coc(C(F)F)n2)cn2cc(C3CCOCC3)nc12 [Example 333, 2-(difluoromethyl)-N-(8-methoxy-2-(tetrahydro-2H-pyran-4-yl)imidazo[1,2-a]pyrazin-6-yl)oxazole-4-carboxamide]"
8,0.045,"CC(C)Oc1cc2nc(C3CCOC3)cn2cc1NC(=O)c1cccc(C(F)F)n1 (stereo not drawn) [Example 530, 6-(difluoromethyl)-N-(7-isopropoxy-2-(tetrahydrofuran-3-yl)imidazo[1,2-a]pyridin-6-yl)picolinamide 2,2,2-trifluoroacetate]"
9,0.003,"COc1c(NC(=O)c2cccc(C(F)F)n2)cn2cc(C3CCOCC3)nc2c1C [Example 427, 6-(difluoromethyl)-N-(7-methoxy-8-methyl-2-(tetrahydro-2H-pyran-4-yl)imidazo[1,2-a]pyridin-6-yl)picolinamide]"
10,0.016,"COc1cccc(C(=O)Nc2cn3cc(C4CCOCC4)nc3cc2C(F)F)n1 [Example 389, N-(7-(difluoromethyl)-2-(tetrahydro-2H-pyran-4-yl)imidazo[1,2-a]pyridin-6-yl)-6-methoxypicolinamide 2,2,2-trifluoroacetate]"
11,0.006,"COc1ncccc1C(=O)Nc1cn2cc(C34COC(C)(C3)C4)nc2c(OC(C)C)n1 [Example 337, N-(8-isopropoxy-2-(1-methyl-2-oxabicyclo[2.1.1]hexan-4-yl)imidazo[1,2-a]pyrazin-6-yl)-2-methoxynicotinamide]"
12,0.064,"COc1nc(NC(=O)c2cccc(C(F)(F)F)n2)cn2cc(C34COC(C)(C3)C4)nc12 [Example 449, N-(8-methoxy-2-(1-methyl-2-oxabicyclo[2.1.1]hexan-4-yl)imidazo[1,2-a]pyrazin-6-yl)-6-(trifluoromethyl)picolinamide 2,2,2-trifluoroacetate]"

# Reference: US20220089592A1, “IMIDAZO[1,2-A]PYRIDINYL DERIVATIVES AS IRAK4 INHIBITORS” (priority 2019, published 2022)
